Assay results reported in paper PMC6950567, “Evaluation of Marine Diindolinonepyrane in Vitro and in Vivo: Permeability Characterization in Caco-2 Cells Monolayer and Pharmacokinetic Properties in Beagle Dogs” (Marine Drugs, 2019).
“Also recorded” adds a separate entry of the source.

Tests used:
[1] = Pharmacokinetics after intravenous injection in beagle dogs; format: in vivo; settings: for Cmax / MRT / clearance / half-life: male, dog, whole blood
Method: Male beagle dogs (SPF, 10.2–10.8 kg, aged 2 years) were provided by the Xingang Experimental Animal Co., Ltd. (Shanghai, China). All dogs were fed with standard laboratory food and water ad libitum at least 3 days prior to the experiments in an environmentally controlled room (12 h dark-light cycle; ~25 °C, 60% humidity, GB14925-2001). All protocols and procedures were approved by the Institutional Animal Care and Use Committee of Shanghai Ocean University (Approval number: 13-0012). The blood and tissues of the dogs were removed while the dogs were ether anesthetized. Their plasma was collected from the fossa orbitalis vein. Every effort was made to minimize animal pain and suffering.
2,5-BHPA was dissolved in normal saline with NaHCO3 as a solvent (2,5-BHPA/NaHCO3, m/m, 1:1), which was agitated overnight on a magnetic stirrer. Subsequently, it was diluted to different concentrations, filtered, and stored in a refrigerator at 4 °C. The dose was adjusted according to the body weight of the beagle dogs in a volume of 200 µL, and 2,5-BHPA was administered by intravenous injection (7.5, 5.0, and 2.5 mg/kg). Subcutaneous injection in the forearm was used in the experiment.
Nine dogs were randomly divided into three groups (n = 3) and fasted for 24 h with water ad libidum. 2,5-BHPA was administered by intravenous injection (7.5, 5.0, and 2.5 mg/kg). The volume of the three sample levels was identical. The blood samples of 200 µL were drawn at 0, 1, 5, 15, 30, 40, 60, 120, and 240 min after drug treatment, and the samples were immediately stored with 1.8 mL of methanol (methanol:blood = 9:1, v/v). The samples were mixed and centrifuged at 5000× g for 15 min at RT, and the supernatants were filtered for HPLC analysis.
The data were processed with Microsoft Excel 2013 edited by Microsoft (Seattle, WA, USA) and SPSS V25.0 edited by SPSS (Chicago, IL, USA). PKsolver V2.0 edited by China Pharmaceutical University (Nanjing, China) was used to calculate the pharmacokinetic parameters and the compartment model. The image was processed with Origin 9.0 software edited by Origin Lab (Northampton, MA, USA).

fibrinolytic enzyme = system: fibrinolytic enzyme; design: method as in earlier work; settings: cited from earlier work
[2] = beagle dogs, intravenous, 2.5 mg·kg^−1
[3] = beagle dogs, intravenous, 5.0 mg·kg^−1
[4] = beagle dogs, intravenous, 7.5 mg·kg^−1

Question: For `CC(C)=CCCC(C)=CCCC1(C)Oc2c(c(O)cc3c2CN(CCCC(C(=O)O)N2Cc4c(cc(O)c5c4OC(C)(CCC=C(C)CCC=C(C)C)C(O)C5)C2=O)C3=O)CC1O` (stereo not shown) [2,5-BHPA, 2,5-Bis-[8-(4,8-dimethyl-nona-3,7-dienyl)-5,7-dihydroxy-8-methyl-3-keto-1,2,7,8-tertahydro-6H-pyran[a]isoindol-2-yl]-pentanoic acid], which K10 [1, 2] is on record?
Answer: 0.055 ± 0.021 min⁻¹

Question: And the K12 [1, 2]?
Answer: 0.009 ± 0.004 min⁻¹

Question: And the K21 [1, 2]?
Answer: 0.018 ± 0.001 min⁻¹

Question: What about the K10 [1, 3] of the same compound?
Answer: 0.075 ± 0.012 min⁻¹

Question: And the K12 [1, 3]?
Answer: 0.017 ± 0.002 min⁻¹

Question: And the K21 [1, 3]?
Answer: 0.018 ± 0.001 min⁻¹

Question: And the K10 [1, 4]?
Answer: 0.051 ± 0.015 min⁻¹

Question: What about the K12 [1, 4] of the same compound?
Answer: 0.007 ± 0.004 min⁻¹

Question: And the K21 [1, 4]?
Answer: 0.017 ± 0.003 min⁻¹

Question: And the “compartment model of plasma concentration-time curves” value ([1]; beagle dogs, intravenous, 7.5, 5.0, 2.5 mg·kg^−1, weight = 1/c^2)?
Answer: fitted well to a two-compartment model; also recorded: consistent with the two-compartment model

Question: And the “half-life (T1/2) in dogs compared with rats” value ([1]; dogs (this study) versus rats [14])?
Answer: about two times longer than in rats

Question: And the “dose linearity of pharmacokinetics” value ([1]; dogs, intravenous, dose range 2.5-7.5 mg/kg, from CL and MRT)?
Answer: linear pharmacokinetic characteristics

Question: And the Cmax [1, 2]?
Answer: 13600 ± 2760 ng/mL

Question: And the MRT [1, 2]?
Answer: 28.7 min

Question: What about the clearance [1, 2] of the same compound?
Answer: 9.2 ± 0.6 mL/min/kg

Question: What about the half-life [1, 2] of the same compound?
Answer: 49 ± 2 min

Question: And the Cmax [1, 3]?
Answer: 48600 ± 5530 ng/mL

Question: And the MRT [1, 3]?
Answer: 26.2 min

Question: And the clearance [1, 3]?
Answer: 7.1 ± 0.8 mL/min/kg

Question: And the half-life [1, 3]?
Answer: 48 ± 2 min

Question: And the Cmax [1, 4]?
Answer: 56500 ± 6230 ng/mL

Question: And the MRT [1, 4]?
Answer: 28.2 min

Question: And the clearance [1, 4]?
Answer: 6.2 ± 0.4 mL/min/kg

Question: And the half-life [1, 4]?
Answer: 49 ± 2 min

Question: And the fibrinolytic activity (fibrinolytic enzyme)?
Answer: has been shown to have fibrinolytic activity
